Measurements reported in patent US11046699B2, “Pyrazolo-pyrimidin-amino-cycloalkyl compounds and their therapeutic uses” (RAPT THERAPEUTICS, INC., priority 2018, dated 2021).
Where a name gives a salt, the structure may show the parent alone.

Biological target: GCN2 (Homo sapiens, UniProt Q9P2K8)
Assay: GCN2 enzymatic endpoint assay: phosphorylation of GFP-eIF2α measured by TR-FRET (Lanthascreen)
Assay type: biochemical
Conditions: tested as described in Example 77; compound and/or hydrochloride, dihydrochloride or trifluoroacetic acid salt; read-out: IC 50 Activity
Procedure, shortened: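 Endpoint GCN2 reaction with low ATP (2 μM) and 80 nM GFP-eIF2α, room temperature, 90 minutes. Detection mix with EDTA and Tb-labelled antibody; 520 nm/495 nm emission ratio reported.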

Sequence of GCN2 (Q9P2K8 whole entry): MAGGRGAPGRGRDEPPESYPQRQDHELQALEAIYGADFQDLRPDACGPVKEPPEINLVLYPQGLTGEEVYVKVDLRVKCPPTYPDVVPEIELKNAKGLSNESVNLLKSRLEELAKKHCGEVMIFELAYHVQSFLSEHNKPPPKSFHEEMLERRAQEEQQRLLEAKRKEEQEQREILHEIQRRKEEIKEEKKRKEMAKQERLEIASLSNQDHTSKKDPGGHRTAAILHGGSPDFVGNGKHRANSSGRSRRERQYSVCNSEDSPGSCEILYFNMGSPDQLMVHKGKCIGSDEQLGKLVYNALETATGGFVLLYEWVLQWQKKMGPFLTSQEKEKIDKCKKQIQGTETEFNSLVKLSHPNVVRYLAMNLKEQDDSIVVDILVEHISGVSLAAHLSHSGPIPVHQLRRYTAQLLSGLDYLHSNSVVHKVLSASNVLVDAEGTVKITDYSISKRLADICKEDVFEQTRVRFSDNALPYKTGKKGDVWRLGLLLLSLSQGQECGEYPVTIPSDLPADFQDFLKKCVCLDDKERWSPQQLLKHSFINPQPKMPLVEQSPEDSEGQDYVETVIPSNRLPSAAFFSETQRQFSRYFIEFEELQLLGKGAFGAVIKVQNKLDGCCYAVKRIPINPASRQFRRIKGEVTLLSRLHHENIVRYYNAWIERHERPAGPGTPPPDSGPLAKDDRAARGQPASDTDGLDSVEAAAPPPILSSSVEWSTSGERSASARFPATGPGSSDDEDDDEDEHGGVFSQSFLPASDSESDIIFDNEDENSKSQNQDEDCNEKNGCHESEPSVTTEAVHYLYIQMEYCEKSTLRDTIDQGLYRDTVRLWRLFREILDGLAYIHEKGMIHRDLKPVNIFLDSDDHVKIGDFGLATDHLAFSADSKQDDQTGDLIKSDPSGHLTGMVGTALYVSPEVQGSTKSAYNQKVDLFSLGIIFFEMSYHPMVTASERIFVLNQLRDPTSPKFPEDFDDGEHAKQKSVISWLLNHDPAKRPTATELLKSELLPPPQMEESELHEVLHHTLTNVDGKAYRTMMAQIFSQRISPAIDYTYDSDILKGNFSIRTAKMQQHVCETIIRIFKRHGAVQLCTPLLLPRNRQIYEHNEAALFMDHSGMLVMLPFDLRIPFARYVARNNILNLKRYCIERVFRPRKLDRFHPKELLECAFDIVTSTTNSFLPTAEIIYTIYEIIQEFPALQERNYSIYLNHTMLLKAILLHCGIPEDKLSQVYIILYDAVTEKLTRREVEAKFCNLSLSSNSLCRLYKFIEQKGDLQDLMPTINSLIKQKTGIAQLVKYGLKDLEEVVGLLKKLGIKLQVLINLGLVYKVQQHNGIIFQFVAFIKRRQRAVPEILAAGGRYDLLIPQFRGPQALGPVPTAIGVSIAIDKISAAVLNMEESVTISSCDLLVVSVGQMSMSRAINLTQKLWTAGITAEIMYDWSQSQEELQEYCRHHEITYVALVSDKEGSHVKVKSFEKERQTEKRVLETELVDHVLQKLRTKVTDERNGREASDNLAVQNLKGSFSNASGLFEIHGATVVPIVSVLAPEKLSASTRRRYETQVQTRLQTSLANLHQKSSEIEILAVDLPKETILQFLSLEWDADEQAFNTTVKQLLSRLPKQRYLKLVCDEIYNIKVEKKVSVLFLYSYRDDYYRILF

Q: For `CC(CNC(=O)[C@@H]1CC[C@@H](Nc2ncc3c(Br)nn(-c4ccc5ncccc5c4)c3n2)C1)N1CCCC1` (stereo partly drawn) [(1R,3R)-3-((3-bromo-1-(quinolin-6-yl)-1H-pyrazolo[3,4-d]pyrimidin-6-yl)amino)-N-(2-(pyrrolidin-1-yl)propyl)cyclopentane-1-carboxamide], which IC50 is on record?
A: Its IC50 is 25 to 200 nM.

Q: With `CNC(=O)[C@]1(CC(=O)N(C)C)CC[C@@H](Nc2ncc3c(Br)nn(-c4cc(F)c5ncccc5c4)c3n2)C1` [(1R,3R)-3-[[3-bromo-1-(8-fluoro-6-quinolyl)pyrazolo[3,4-d]pyrimidin-6-yl]amino]-1-[2-(dimethylamino)-2-oxo-ethyl]-N-methyl-cyclopentanecarboxamide] as the compound, how does the IC50 read?
A: The IC50 was under 25 nM.

Q: For `CS(=O)(=O)CCNC(=O)[C@@H]1CC[C@@H](Nc2ncc3c(Br)nn(-c4ccc5nccnc5c4)c3n2)C1` [(1R,3R)-3-((3-bromo-1-(quinoxalin-6-yl)-1H-pyrazolo[3,4-d]pyrimidin-6-yl)amino)-N-(2-(methylsulfonyl)ethyl)cyclopentane-1-carboxamide], which IC50 is on record?
A: Its IC50 is 200 to 500 nM.

Q: With `CNC(=O)[C@]1(C)CC[C@@H](Nc2ncc3c(Br)nn(-c4ccc5nccc(OC)c5c4)c3n2)C1` [(1R,3R)-3-[[3-bromo-1-(4-methoxy-6-quinolyl)pyrazolo[3,4-d]pyrimidin-6-yl]amino]-N,1-dimethyl-cyclopentanecarboxamide] as the compound, how does the IC50 read?
A: The IC50 was under 25 nM.

Q: With `O=C(O)CCNC(=O)[C@@H]1CC[C@@H](Nc2ncc3c(Br)nn(-c4cc(F)c5ncccc5c4)c3n2)C1` [3-((1R,3R)-3-((3-bromo-1-(8-fluoroquinolin-6-yl)-1H-pyrazolo[3,4-d]pyrimidin-6-yl)amino)cyclopentane-1-carboxamido) propanoic acid] as the compound, how does the IC50 read?
A: Its IC50 is 25 to 200 nM.

Q: For `CNC(=O)[C@]1(C)CC[C@@H](Nc2ncc3c(Br)nn(-c4ccc(-c5ncco5)c(NC(=O)CC#N)c4)c3n2)C1` [(1R,3R)-3-[[3-bromo-1-[3-[(2-cyanoacetyl)amino]-4-oxazol-2-yl-phenyl]pyrazolo [3,4-d]pyrimidin-6-yl]amino]-N,1-dimethyl-cyclopentanecarboxamide], which IC50 is on record?
A: Its IC50 is 25 to 200 nM.

Q: How did the IC50 turn out when `Cc1nnc(-c2ccc(-n3nc(Br)c4cnc(N[C@@H]5CC[C@@](C)(C(=O)N6CCOCC6)C5)nc43)cc2CCC#N)s1` was run?
A: Its IC50 is 25 to 200 nM.

Q: How did the IC50 turn out when `Cc1nnc(-c2ccc(-n3nc(Br)c4cnc(NC5CC(P(C)(C)=O)C5)nc43)cc2CCC#N)s1` (centres unmarked) [3-[5-[3-bromo-6-[(3-dimethylphosphoryl-cyclobutyl)amino]pyrazolo[3,4-d]pyrimidin-1-yl]-2-(5-methyl-1,3,4-thiadiazol-2-yl)phenyl]propanenitrile] was run?
A: The IC50 was 25 to 200 nM.

Q: How did the IC50 turn out when `Cc1nnc(-c2ccc(-n3nc(Br)c4cnc(N[C@@H]5CCC(S(=O)(=O)NCCC#N)C5)nc43)cc2)s1` (some centres unmarked) was run?
A: The IC50 was 25 to 200 nM.

Q: With `CNC(=O)[C@]1(C)CC[C@@H](Nc2ncc3c(Br)nn(-c4ccc(-c5ncco5)c(CCN)c4)c3n2)C1` [(1R,3R)-3-[[1-[3-(2-aminoethyl)-4-oxazol-2-yl-phenyl]-3-bromo-pyrazolo[3,4-d]pyrimidin-6-yl]amino]-N,1-dimethyl-cyclopentanecarboxamide] as the compound, how does the IC50 read?
A: Its IC50 is 25 to 200 nM.

Q: Which IC50 does the source give for `CN[C@]1(C)CC[C@@H](Nc2ncc3c(Br)nn(-c4ccc(-c5nnc(C)s5)cc4)c3n2)C1` here?
A: Its IC50 is 25 to 200 nM.

Q: For `CN(C)S(=O)(=O)C1CC[C@@H](Nc2ncc3c(Br)nn(-c4cc(F)c5ncccc5c4)c3n2)C1` (stereo partly drawn) [(3R)-3-((3-bromo-1-(8-fluoroquinolin-6-yl)-1H-pyrazolo[3,4-d]pyrimidin-6-yl)amino)-N,N-dimethylcyclopentane-1-sulfonamide], which IC50 is on record?
A: Its IC50 is 25 to 200 nM.

Q: For `CNC(=O)[C@]1(C)CC[C@@H](Nc2ncc3c(Br)nn(-c4ccc5nccc(P(C)(C)=O)c5c4)c3n2)C1` [(1R,3R)-3-[[3-bromo-1-(4-dimethyl-phosphoryl-6-quinolyl)pyrazolo[3,4-d]pyrimidin-6-yl]amino]-N,1-dimethyl-cyclopentanecarboxamide], which IC50 is on record?
A: Its IC50 is 25 to 200 nM.

Q: With `CNC(=O)[C@]1(C)CC[C@@H](Nc2ncc3c(Br)nn(-c4ccc5c(=O)n(C)cnc5c4)c3n2)C1` as the compound, how does the IC50 read?
A: The IC50 was 25 to 200 nM.

Q: With `CNC(=O)[C@]1(C)CC[C@@H](Nc2ncc3c(Br)nn(-c4cc(CO)c5ncccc5c4)c3n2)C1` [(1R,3R)-3-[[3-bromo-1-[8-(hydroxy-methyl)-6-quinolyl]pyrazolo[3,4-d]pyrimidin-6-yl]amino]-N,1-dimethyl-cyclopentanecarboxamide] as the compound, how does the IC50 read?
A: The IC50 was under 25 nM.

Q: Which IC50 does the source give for `CNC(=O)[C@]1(C)CC[C@@H](Nc2ncc3c(Br)nn(-c4ccc5c(c4)CN(C(=O)CO)CC5)c3n2)C1` [(1R,3R)-3-[[3-bromo-1-[2-(2-hydroxyacetyl)-3,4-dihydro-1H-isoquinolin-7-yl]pyrazolo [3,4-d]pyrimidin-6-yl]amino]-N,1-dimethyl-cyclopentanecarboxamide] here?
A: Its IC50 is 25 to 200 nM.

Q: How did the IC50 turn out when `CNC(=O)C1(C)CC[C@@H](Nc2ncc3c(Br)nn(-c4cccc(CCCO)c4)c3n2)C1` (stereo partly drawn) [(3R)-3-[[3-bromo-1-[3-(3-hydroxypropyl)phenyl]pyrazolo[3,4-d]pyrimidin-6-yl]amino]-N,1-dimethyl-cyclopentane-carboxamide] was run?
A: The IC50 was 25 to 200 nM.

Q: With `CNC(=O)[C@]1(F)CC[C@@H](Nc2ncc3c(Br)nn(-c4cc(F)c5ncccc5c4)c3n2)C1` [(1S,3R)-3-[[3-bromo-1-(8-fluoro-6-quinolyl)pyrazolo[3,4-d]pyrimidin-6-yl]amino]-1-fluoro-N-methyl-cyclopentanecarboxamide] as the compound, how does the IC50 read?
A: The IC50 was 25 to 200 nM.

Q: How did the IC50 turn out when `Cc1nnc(-c2ccc(-n3nc(Br)c4cnc(N[C@@H]5CCC6(CC(=O)N(C)C6=O)C5)nc43)cc2)s1` (some centres unmarked) was run?
A: Its IC50 is under 25 nM.

Q: With `CNC(=O)[C@@H]1CC[C@@H](Nc2ncc3c(Br)nn(-c4cc(OC(F)(F)F)c5ncccc5c4)c3n2)C1` [(1R,3R)-3-((3-bromo-1-(8-(trifluoro-methoxy)quinolin-6-yl)-1H-pyrazolo [3,4-d]pyrimidin-6-yl)amino)-N-methylcyclopentane-1-carboxamide] as the compound, how does the IC50 read?
A: The IC50 was 25 to 200 nM.

Q: How did the IC50 turn out when `CNC(=O)[C@]1(C)CC[C@@H](Nc2ncc3c(Br)nn(-c4cc(CO)c5nccnc5c4)c3n2)C1` [(1R,3R)-3-[[3-bromo-1-[8-(hydroxymethyl)quinoxalin-6-yl]pyrazolo[3,4-d]pyrimidin-6-yl]amino]-N,1-dimethyl-cyclopentane-carboxamide] was run?
A: Its IC50 is 25 to 200 nM.

Q: Which IC50 does the source give for `N#Cc1cc(-n2nc(Br)c3cnc(N[C@@H]4CC[C@@H](C(=O)N[C@H]5CCNC5)C4)nc32)cc2cccnc12` [(1R,3R)-3-((3-bromo-1-(8-cyanoquinolin-6-yl)-1H-pyrazolo[3,4-d]pyrimidin-6-yl)amino)-N-((S)-pyrrolidin-3-yl)cyclopentane-1-carboxamide] here?
A: Its IC50 is under 25 nM.

Q: With `CNC(=O)[C@]1(C)CC[C@@H](Nc2ncc3c(Br)nn(-c4cc(CNCCC#N)cc(OC(F)(F)F)c4)c3n2)C1` [(1R,3R)-3-[[3-bromo-1-[3-[(2-cyanoethyl-amino)methyl]-5-(trifluoromethoxy)phenyl]pyrazolo[3,4-d]pyrimidin-6-yl]amino]-N,1-dimethyl-cyclopentane-carboxamide] as the compound, how does the IC50 read?
A: Its IC50 is 25 to 200 nM.

Q: `CNC(=O)[C@]1(C)CC[C@@H](Nc2ncc3c(Br)nn(-c4cc(Cl)cc(C5COC(=O)N5C)c4)c3n2)C1` (stereo partly drawn) [(1R,3R)-3-[[3-bromo-1-[3-chloro-5-(3-methyl-2-oxo-oxazolidin-4-yl)phenyl]pyrazolo[3,4-d]pyrimidin-6-yl]amino]-N,1-dimethyl-cyclopentanecarboxamide] was tested. Which IC50 did it give?
A: The IC50 was 25 to 200 nM.

Q: How did the IC50 turn out when `COCCNC(=O)[C@@H]1CC[C@@H](Nc2ncc3c(Br)nn(-c4cc(C(F)(F)F)c5ncccc5c4)c3n2)C1` [(1R,3R)-3-((3-bromo-1-(8-(trifluoromethyl)quinolin-6-yl)-1H-pyrazolo[3,4-d]pyrimidin-6-yl)amino)-N-(2-methoxyethyl)cyclopentane-1-carboxamide] was run?
A: The IC50 was 200 to 500 nM.

Q: How did the IC50 turn out when `COCCNC(=O)[C@H]1CC[C@H](Nc2ncc3c(Br)nn(-c4ccc5ncccc5c4)c3n2)C1` [(1S,3S)-3-((3-bromo-1-(quinolin-6-yl)-1H-pyrazolo[3,4-d]pyrimidin-6-yl)amino)-N-(2-methoxyethyl)cyclopentane-1-carboxamide] was run?
A: The IC50 was 500 to 1000 nM.

Q: For `CNC(=O)[C@]1([C@H](C)C#N)CC[C@@H](Nc2ncc3c(Br)nn(-c4ccc(-c5nnc(C)s5)cc4)c3n2)C1` [(1R,3R)-3-[[3-bromo-1-[4-(5-methyl-1,3,4-thiadiazol-2-yl)phenyl]pyrazolo [3,4-d]pyrimidin-6-yl]amino]-1-[(1S)-1-cyanoethyl]-N-methyl-cyclopentane-carboxamide], which IC50 is on record?
A: The IC50 was 25 to 200 nM.

Q: `Cc1nnc(-c2ccc(-n3nc(Br)c4cnc(N[C@@H]5CCC6(CC(=O)N(C)C6=O)C5)nc43)cc2CCC#N)s1` (stereo partly drawn) [3-[5-[3-bromo-6-[[(8R)-2-methyl-1,3-dioxo-2-azaspiro[4.4]nonan-8-yl]amino]pyrazolo[3,4-d]pyrimidin-1-yl]-2-(5-methyl-1,3,4-thiadiazol-2-yl)phenyl]propanenitrile; 2,2,2-trifluoroacetic acid] was tested. Which IC50 did it give?
A: The IC50 was 25 to 200 nM.

Q: `COCCNC(=O)[C@@H]1CC[C@@H](Nc2ncc3c(Br)nn(-c4ccc(-c5ccncc5)cc4)c3n2)C1` [(1R,3R)-3-((3-bromo-1-(4-(pyridin-4-yl)phenyl)-1H-pyrazolo[3,4-d]pyrimidin-6-yl)amino)-N-(2-methoxyethyl)cyclopentane-1-carboxamide] was tested. Which IC50 did it give?
A: Its IC50 is 500 to 1000 nM.

Q: With `CNC(=O)[C@@]1(C)CC[C@@H](Nc2ncc3c(Br)nn(-c4ccc5ncccc5c4)c3n2)C1` [(1S,3R)-3-((3-bromo-1-(quinolin-6-yl)-1H-pyrazolo[3,4-d]pyrimidin-6-yl)amino)-N,1-dimethylcyclopentane-1-carboxamide] as the compound, how does the IC50 read?
A: The IC50 was 200 to 500 nM.

Q: How did the IC50 turn out when `C[C@H](N)c1cc(Cl)cc(-n2nc(Br)c3cnc(N[C@@H]4CC[C@@](C)(CO)C4)nc32)c1` [[(1R,3R)-3-[[1-[3-[(1S)-1-aminoethyl]-5-chloro-phenyl]-3-bromo-pyrazolo [3,4-d]pyrimidin-6-yl]amino]-1-methyl-cyclopentyl]methanol hydrochloride] was run?
A: Its IC50 is 25 to 200 nM.

Q: For `O=C([C@@H]1CC[C@@H](Nc2ncc3c(Br)nn(-c4cc(F)c5ncccc5c4)c3n2)C1)N1CCNC(C(F)(F)F)C1` (stereo partly drawn) [[(1R,3R)-3-[[3-bromo-1-(8-fluoro-6-quinolyl)pyrazolo[3,4-d]pyrimidin-6-yl]amino]cyclo-pentyl]-[3-(trifluoromethyl)piperazin-1-yl] methanone], which IC50 is on record?
A: The IC50 was 25 to 200 nM.
